Entries after “also recorded” stand apart in the source; their conditions may differ.
Key:
Format in all cases: cell-based
β tubulin-III = experiment: Western blot of β tubulin-III expression in rat cortical stem cells; details: valproate 1 day
rat cortical stem cells [1] = experiment: Neurite outgrowth of neurons derived from rat cortical stem cells (ArrayScan neurite outgrowth index); details: 1 day; 0.5 mM valproate, 50 ng/ml BDNF; control 35.1+0.3
Protocol: Following plating cells were expanded for about 3–4 days (Passage 1, P1). Cells were treated daily with 10 ng/ml bFGF. The cultures were never permitted to reach more than 70% confluency. Cultures were then passaged as follows: 10 ml of HBSS without Ca^2+ and Mg^2+ was added to each 100 mm dish and the cells incubated at 37° C. for 5–15 minutes, or until sufficient numbers of the stem cells were rounded up. It is not expected that all cells in the culture will round up as there are several cell types in the culture at P0. The pH of the HBSS should be neutral at all times during this incubation. Cells were then removed from the dish by pipetting with a 5 ml pipette, and collected in a 15 or 50 ml conical tube, and centrifuged at 1000 g for 5 minutes. Cells were gently re-suspended in medium, counted, and plated at a density of 1×10^6 cells in 10 cm dishes and expanded for about 2 days in bFGF (Passage 1, P1). […]
For analysis of neurite outgrowth, digital images were taken with an ArrayScan HCS System (Cellomics, Pa.) of 100 cells/well treated with valproate (0.5 mM) and BDNF (50 ng/ml) for 1 day. […] Neurite outgrowth index is defined as the percentage of cells whose neurites total more than 20 μm in length, and is calculated using Cellomics' Neurite Outgrowth application.

rat cortical stem cells [2] = experiment: Differentiation of rat cortical stem cells into GABA expressing cells (GABA immunocytochemistry); details: 6 days valproate vs control
Protocol: Drug treatment. For immunofluorescence and Western analysis, cells were treated daily with either 0.5 mM of valproate (Sigma), 10 ng/ml of BDNF (R & D Systems), 20 ng/ml of NT-3 (R & D Systems), 1 nM 9cis retinoic acid (Sigma) or a dilution of NCM for 6 or 7 days. In some experiments valproate was also added with NCM and/or 9cis RA for 7 days. For human stem cell experiments, valproate (0.5 mM) or BDNF (25 ng/ml) was added for 9 days. For neurite outgrowth experiments, cells were treated for 1 day with 0.5 mM valproate or 50 ng/ml of BDNF. Where applicable, medium was changed every 2 days. After about 5–10 days, preferably on day 6 (i.e., after 6 days of drug exposure) the cells were fixed with a 4% solution of para-formaldehyde (PFA) in PBS, prepared as follows: Immunofluorescent staining and visualization. Cells were plated at 20,000 cells/well in poly-L-ornithine/fibronectin (1 mg/ml) coated 24-well plates. […] For immunofluorescence, 3 different black and white pictures were taken by field of interest with a digital camera CoolSnap Fx (Princeton) corresponding to the exposure of Cy2, Cy3 and Hoechst fluorescence. […] The percentage of neurons, astrocytes and GABAergic cells was determined by comparing the number of cells immunopositive for β-tubulin III, GFAP and GABA to the number of bis-benzamide stained nuclei (i.e., total cell number). […]

[3] = test system: glutamate decarboxylase (GAD); experiment: Western blot of GAD 65/67 expression in rat cortical stem cell cultures; details: 0.5 mM valproate
Protocol: Western blotting. Cells were plated at 1×10^6 cells/100 mm dish in poly-1-ornithine-coated 10 cm dishes and treated as described supra. Denatured proteins were separated on 8% polyacrylamide Tris-Glycine gels (Novex) and transferred to nitrocellulose membranes (BioRad). Membranes were probed with antibodies against rabbit anti-GAD 65/67 (Sigma) at 1:10,000 and HRP-conjugated anti-rabbit (Jackson Immunolabs) at 1:10,000 respective dilutions. Antigen-antibody complexes were visualized using a SuperSignal West Pico Chemiluminescent Kit (Pierce).

CCCC(CCC)C(=O)O [valproate, 2-Propylpentanoic acid]
β-tubulin III expression by Western blot (β tubulin-III): increase of β-tubulin III expression; also recorded: increases β tubulin-III expression | neurite index (percentage of cells whose neurites total more than 20 μm in length) (rat cortical stem cells [1]): 49+1.9 | number and percentage of cells immuno-positive for GABA (rat cortical stem cells [2]): dramatic increase in the number; also recorded: increase in the number of GABA-positive neurons | GAD expression ([3]; 3 and 6 days): GAD expression was increased; also recorded: increases GAD expression after 3 and 6 days | GAD expression ([3]; 1 day): No expression of GAD was detectable

Source: patent US7132286B2, “Method for neural stem cell differentiation using valproate” (Psychiatric Genomics, Inc., priority 2001, dated 2006)
